This is an account of results in paper PMC3477287 (ACS chemical biology, 2012).

For this test, the target named is MbtA (Mycobacterium tuberculosis, UniProt P71716). Briefly: […]. The class given is biochemical.

Usually Ki stands for the dissociation constant of the complex between target and ligand, obtained from inhibition or displacement. High values mean lower affinity, low ones higher affinity.

Chain of MbtA (P71716 whole entry): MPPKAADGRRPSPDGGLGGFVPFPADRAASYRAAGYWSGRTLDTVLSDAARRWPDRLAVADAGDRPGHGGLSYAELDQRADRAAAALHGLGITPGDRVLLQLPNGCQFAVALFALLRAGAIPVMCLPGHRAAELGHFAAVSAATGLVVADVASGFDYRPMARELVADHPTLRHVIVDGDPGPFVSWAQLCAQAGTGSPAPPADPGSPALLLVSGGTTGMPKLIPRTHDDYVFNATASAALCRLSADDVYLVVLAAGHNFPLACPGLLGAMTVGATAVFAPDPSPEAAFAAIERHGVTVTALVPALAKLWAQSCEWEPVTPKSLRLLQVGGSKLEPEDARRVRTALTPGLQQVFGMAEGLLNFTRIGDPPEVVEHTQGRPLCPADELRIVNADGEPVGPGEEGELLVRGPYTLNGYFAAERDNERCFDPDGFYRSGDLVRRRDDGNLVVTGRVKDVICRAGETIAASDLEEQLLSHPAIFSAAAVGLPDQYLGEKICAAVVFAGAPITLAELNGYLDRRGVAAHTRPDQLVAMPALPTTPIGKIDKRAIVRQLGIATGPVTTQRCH

The substance Sal-AMS ABP [compound 6] came in with an inhibition constant Ki of 940 pM.
